Measured values: US11566062B2, “Methods for modulating protein mannosylation profiles using maduramycin, narasin, or salinomycin” (ARES TRADING S.A., priority 2017, dated 2023)
“Also recorded” adds a separate entry of the source.

Key:
Format in all cases: cell-based, Chinese hamster
[1] = system: mannosylation level of mAb1; assay: Glycosylation (mannosylation) profile of mAb1 by 2AB-UPLC; parameters: level of ManS species / level of Man6 species (M6) / level of Man7 species / level of Man8 species / level of Man9 species: dose or concentration left out as unconfirmed; conditions: for level of Man6 species (M6) / level of Man7 species / level of Man8 species / level of Man9 species / level of ManS species: day 12, added at the start of the culture; for total mannosylation: 10 nM added at the start
Experimental: (§1) All assays were performed in fed-batch culture. A serum-free chemically defined culture medium was used. It was used as it is, or it was supplemented with polyether ionophore compounds (maduramycin, narasin, salinomycin and lasalocid were all purchased from Sigma-Aldrich) at the desired concentrations. The culture medium was fed, on a regular basis, with a chemically defined feed medium, as well as with glucose in order to keep said glucose level in the range of >0 to about 8 g/L (feeds were done at days 3, 5, 7, 10 and additional glucose feed at day 12).
(§2) For examples 2 and 3, cultures were performed in Ambr®15 with a working volume of 14 mL (36.5° C., Dissolved Oxygen 40%, 0.1 ml/min N2, pH range: 6.75-7.15, 800 rpm). A temperature shift was performed at day 6 for the cells expressing mAb1. Further conditions are mentioned in Table 2.
(§3) Glycosylation profiles were established either by Ultra Performance Liquid Chromatography-2-amino-benzamide labelling technique (2AB-UPLC; mAb1) or by mass spectroscopy (MS; mAB2). Groups of glycans were defined in Table 1.
(§4) The cells were cultivated and the results analysed as disclosed in the material and method section.

mAb2 cells [2] = assay: Viable cell density (ViCell) of mAb2 cells, fed-batch Ambr15
Experimental: (§5) Cells expressing mAb1 and mAb2 were inoculated at 0.2×10^6 cells per millilitre (mL).
as §1, §2
(§6) Each of the fed-batch culture lasted 14 days.
(§7) Viable cell density and viability were measured with the ViCell® (Beckmann Coulter). Antibody titers were measured with PA-HPLC.
as §4

mAb1 cells [3] = assay: Toxicity of the polyether ionophores: viable cell density (ViCell) in fed-batch SpinTubes culture; conditions: all concentrations tested (100, 250, 500 and 1000 nM; as low as 100 nM), vs control
Experimental: as §5, §1
For example 1, cultures were performed in SpinTubes® with a working volume of 30 mL. They were incubated at 36.5° C., 5% de CO2, 80% humidity and shaken at 320 rpm. Salinomycin, narasin and maduramycin were tested at 100, 250, 500 and 1000 nM.
as §6, §7
The cells were cultivated and the results analysed as disclosed in the material and method section. It is noted that the controls (or control conditions) according to the present invention correspond to cells grown without any polyether ionophores.

mAb1 cells [4] = assay: Antibody titre (PA-HPLC) of mAb1 cells, fed-batch Ambr15; conditions: 5 and 10 nM added at the start of the culture
Experimental: as §5, §1, §2, §6, §7, §4

[5] = system: mannosylation level of mAb2; assay: Glycosylation (mannosylation) profile of mAb2 by mass spectroscopy; conditions: for impact on afucoslyated glycoforms: data non shown; for level of Man5 species / level of Man6 species (M6) / level of Man7 species: day 10, 10 nM added at the start of the culture; for level of fucosylated glycoforms: not shown; for total mannosylation: 10 nM added at the start
Experimental: as §1, §2, §3, §4

mAb1 cells [6] = assay: Viable cell density and viability (ViCell) of mAb1 cells, fed-batch Ambr15; conditions: 5 and 10 nM added at the start of the culture
Experimental: as §5, §1, §2, §6, §7, §4

mAb2 cells [7] = assay: Titre (PA-HPLC) of mAb2 cells, fed-batch Ambr15
Experimental: as §5, §1, §2, §6, §7, §4

[8] = 10 nM added at the start of the culture

| Molecule | level of Man6 species (M6) [1] | level of Man7 species [1] | level of Man8 species [1] | level of Man9 species [1] | level of ManS species [1] | VCD decreased by a factor (mAb1 cells [3]) | protein titre at the end of culture compared to the control (mAb1 cells [4]) | impact on afucoslyated glycoforms [5] | level of Man5 species [5] | level of Man6 species (M6) [5] | level of Man7 species [5] | level of fucosylated glycoforms [5] | cell growth (VCD) at the end of culture compared to the control (mAb1 cells [6]) | other results |
| --- | --- | --- | --- | --- | --- | --- | --- | --- | --- | --- | --- | --- | --- | --- |
| CC[C@@H](C(=O)[C@@H](C)[C@@H](O)[C@H](C)[C@@H]1O[C@@H]([C@@H](CC)C(=O)O)CC[C@@H]1C)[C@H]1O[C@]2(C=C[C@@H](O)[C@]3(CC[C@@](C)([C@H]4CC[C@](O)(CC)[C@H](C)O4)O3)O2)[C@H](C)C[C@@H]1C [salinomycin, Salinomycin] | about 3.2% | about 1.5% | about 0.3% | about 0.45% | about 27% | 3 | −15% | without deeply impacting afucoslyated glycoforms | about 15% | about 2.5% | about 0.65% | decreased | −13% | cell growth compared to the control at the end of culture (mAb2 cells [2]; [8]): not more than 10% |
| Lasalocid | – | – | – | – | – | – | – | – | – | – | – | – | – | effect on mannosylation ([1]; concentration not given): no effect on mannosylation; also recorded: no impact on mannosylation |
| CC[C@@H](C(=O)O)[C@@H]1O[C@@H]([C@@H](C)[C@H](O)[C@H](C)C(=O)[C@H](CC)[C@H]2O[C@]3(C=C[C@@H](O)[C@]4(CC[C@@](C)([C@H]5CC[C@](O)(CC)[C@H](C)O5)O4)O3)[C@H](C)C[C@@H]2C)[C@@H](C)C[C@@H]1C [narasin, Narasin] | about 6.5% | about 4.5% | about 3.5% | about 0.5% | about 32% | 3 | −15% | without deeply impacting afucoslyated glycoforms | about 16.5% | about 3% | about 1.0% | decreased | −15% | total mannosylation ([1]; after 12 days of culture): about 43%; total mannosylation ([1]; after 14 days of culture): 38.9%; impact on cell growth (mAb2 cells [2]; both concentrations (5 and 10 nM) added at the start of the culture): negative impact on cell growth; titre compared to the control (mAb2 cells [7]; 5 nM added at the start of the culture): +10%; titre compared to the control (mAb2 cells [7]; [8]): +15%; total mannosylation ([5]; after 10 days of culture): about 12.0%; total mannosylation ([5]; after 12 days of culture): 18.0% |
